Measured values taken from ChEMBL document CHEMBL6177991, “Discovery of P11-2: A Potent First-in-Class MNK1-Targeting PROTAC Degrader for the Treatment of Cancer” (J Med Chem, 2025).
Calls of active or inactive are those of the source. The rule behind the calls is not given here.

Tests used:
[1] = Toxicity in male ICR mouse assessed as histopathological change in liver at 100 mg/kg, ip measured after 14 days by hematoxylin and eosin staining based analysis; format: organism-based; conditions: in vivo, 336 h, time 14 day
MV4-11 [2] = assay: Upregulation of mTOR pathway related protein expression in human MV4-11 cells by GO analysis; format: functional, cell-based
MV4-11 [3] = assay: Effect on IKZF3 expression in human MV4-11 cells at 10 to 1000 nM incubated for 24 hrs by immunoblot analysis; format: functional, cell-based; conditions: dose 10-1000 nM
[4] = Toxicity in male ICR mouse assessed as change in serum ALP level at 100 mg/kg, ip measured after 14 days; format: organism-based; conditions: in vivo, 336 h, time 14 day

## O=C1CCC(N2Cc3c(NC(=O)CCCCCC(=O)N4CCC(C(=O)Nc5ncc(-c6ccccc6)s5)CC4)cccc3C2=O)C(=O)N1 (centres undefined)
[1]
  Activity: Non-toxic
MV4-11 [2]
  Activity: Active
MV4-11 [3]
  Activity: No effect
[4]
  Activity: Non-toxic
